From ChEMBL document CHEMBL3596153, “Trichormamides C and D, antiproliferative cyclic lipopeptides from the cultured freshwater cyanobacterium cf. Oscillatoria sp. UIC 10045” (Bioorg Med Chem, 2015)
In brackets after ≈: the same amount, converted by molar mass. Activity calls are given as the source filed them. No cut-off for these calls is given here.

Assays:
[1] = test system: MDA-MB-435; test: Antiproliferative activity against human MDA-MB-435 cells; assay type: functional, cell-based
[2] = test system: Staphylococcus aureus; test: Antimicrobial activity against Staphylococcus aureus at 50 ug/ml; assay type: functional, organism-based
[3] = test system: Escherichia coli; test: Antimicrobial activity against Escherichia coli at 50 ug/ml; assay type: functional, organism-based
[4] = test system: Mycobacterium tuberculosis; test: Antimicrobial activity against Mycobacterium tuberculosis; assay type: functional
[5] = test system: HT-29; test: Antiproliferative activity against human HT-29 cells; assay type: functional, cell-based
[6] = test system: Mycolicibacterium smegmatis; test: Antimicrobial activity against Mycobacterium smegmatis at 50 ug/ml; assay type: functional, organism-based
[7] = test system: Candida albicans; test: Antimicrobial activity against Candida albicans at 50 ug/ml; assay type: functional, organism-based
[8] = test system: Mycobacterium tuberculosis; test: Antimicrobial activity against Mycobacterium tuberculosis at 50 ug/ml; assay type: functional, organism-based

**Q.** What does the source list for `CCCCCCC[C@@H]1CC(=O)N[C@@H](C(C)C)C(=O)N[C@H]([C@@H](O)C(C)C)C(=O)N[C@@H](C)C(=O)N[C@H]([C@@H](O)C(C)C)C(=O)N[C@@H](CCC(N)=O)C(=O)N(C)[C@@H]([C@@H](C)CC)C(=O)N[C@H](CC(N)=O)C(=O)N[C@@H]([C@@H](C)O)C(=O)N2CCC[C@H]2C(=O)N[C@H](CC(C)C)C(=O)N[C@@H]([C@@H](C)O)C(=O)N1`?
**A.** IC50 [1]: 1 µM; Activity [2]: inactive; Activity [3]: inactive; MIC [4]: 23.8 µg/mL (≈ 17.3 µM); IC50 [5]: 1.7 µM; Activity [6]: inactive; Activity [7]: inactive

**Q.** `C/C=C1/NC(=O)[C@H](CCC(N)=O)NC(=O)C[C@@H](CCCCCCC)NC(=O)CNC(=O)[C@H](CC(C)C)NC(=O)[C@@H](Cc2ccccc2)NC(=O)[C@H](C(C)C)NC(=O)[C@@H](CC(C)C)NC(=O)[C@@H](Cc2ccc(O)cc2)NC(=O)[C@H](CO)NC(=O)[C@@H]2CCCN2C1=O` was tested. Which Activity [8] did it give?
**A.** The Activity was “inactive”.

**Q.** What about the IC50 [1] of the same compound?
**A.** The IC50 was 11.7 µM.

**Q.** And the Activity [2]?
**A.** Its Activity is “inactive”.

**Q.** What about the Activity [3] of the same compound?
**A.** The Activity was “inactive”.

**Q.** What about the IC50 [5] of the same compound?
**A.** Its IC50 is 11.5 µM.

**Q.** And the Activity [6]?
**A.** Its Activity is “inactive”.

**Q.** And the Activity [7]?
**A.** The Activity was “inactive”.
